Source: ChEMBL document CHEMBL3991601, “The target landscape of clinical kinase drugs” (Science, 2017)
The source made the active and inactive calls.

How the values were obtained:
[1] = target: T1, RNA cytidine acetyltransferase (Homo sapiens, UniProt Q9H0A0)
T1 sequence (Q9H0A0 whole entry): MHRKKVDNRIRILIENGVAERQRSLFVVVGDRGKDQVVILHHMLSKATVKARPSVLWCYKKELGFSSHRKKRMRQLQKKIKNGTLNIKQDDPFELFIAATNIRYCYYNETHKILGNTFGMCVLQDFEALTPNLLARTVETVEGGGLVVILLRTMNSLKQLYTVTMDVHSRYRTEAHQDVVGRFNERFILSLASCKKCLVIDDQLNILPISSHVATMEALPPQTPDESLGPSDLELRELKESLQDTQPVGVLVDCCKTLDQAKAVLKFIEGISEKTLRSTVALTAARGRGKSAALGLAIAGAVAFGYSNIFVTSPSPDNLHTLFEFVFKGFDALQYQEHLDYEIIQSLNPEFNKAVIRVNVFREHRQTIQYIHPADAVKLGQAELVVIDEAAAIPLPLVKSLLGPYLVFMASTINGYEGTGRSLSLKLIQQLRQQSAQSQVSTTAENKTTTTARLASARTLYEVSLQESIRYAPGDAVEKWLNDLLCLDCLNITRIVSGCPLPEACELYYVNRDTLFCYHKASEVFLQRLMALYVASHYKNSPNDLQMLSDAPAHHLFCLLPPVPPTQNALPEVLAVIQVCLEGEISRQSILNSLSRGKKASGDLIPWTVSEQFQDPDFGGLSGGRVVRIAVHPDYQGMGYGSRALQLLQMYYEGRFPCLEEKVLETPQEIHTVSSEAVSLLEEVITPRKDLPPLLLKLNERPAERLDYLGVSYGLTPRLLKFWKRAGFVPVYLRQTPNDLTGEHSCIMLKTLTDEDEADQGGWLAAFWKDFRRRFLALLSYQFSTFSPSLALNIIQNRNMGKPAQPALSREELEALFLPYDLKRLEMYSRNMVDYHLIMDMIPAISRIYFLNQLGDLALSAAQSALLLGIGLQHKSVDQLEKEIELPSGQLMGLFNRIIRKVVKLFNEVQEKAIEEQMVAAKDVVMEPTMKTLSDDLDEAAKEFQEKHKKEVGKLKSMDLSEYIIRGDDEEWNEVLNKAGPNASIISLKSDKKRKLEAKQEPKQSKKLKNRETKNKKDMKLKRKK

[2] = target: T2, Glycogen phosphorylase, liver form (Homo sapiens, UniProt P06737); format: subcellular, K-562, COLO 205, SK-N-BE(2) and MV-4-11, Cell lysate; details: read-out: Kd apparent
T2 sequence (P06737 whole entry): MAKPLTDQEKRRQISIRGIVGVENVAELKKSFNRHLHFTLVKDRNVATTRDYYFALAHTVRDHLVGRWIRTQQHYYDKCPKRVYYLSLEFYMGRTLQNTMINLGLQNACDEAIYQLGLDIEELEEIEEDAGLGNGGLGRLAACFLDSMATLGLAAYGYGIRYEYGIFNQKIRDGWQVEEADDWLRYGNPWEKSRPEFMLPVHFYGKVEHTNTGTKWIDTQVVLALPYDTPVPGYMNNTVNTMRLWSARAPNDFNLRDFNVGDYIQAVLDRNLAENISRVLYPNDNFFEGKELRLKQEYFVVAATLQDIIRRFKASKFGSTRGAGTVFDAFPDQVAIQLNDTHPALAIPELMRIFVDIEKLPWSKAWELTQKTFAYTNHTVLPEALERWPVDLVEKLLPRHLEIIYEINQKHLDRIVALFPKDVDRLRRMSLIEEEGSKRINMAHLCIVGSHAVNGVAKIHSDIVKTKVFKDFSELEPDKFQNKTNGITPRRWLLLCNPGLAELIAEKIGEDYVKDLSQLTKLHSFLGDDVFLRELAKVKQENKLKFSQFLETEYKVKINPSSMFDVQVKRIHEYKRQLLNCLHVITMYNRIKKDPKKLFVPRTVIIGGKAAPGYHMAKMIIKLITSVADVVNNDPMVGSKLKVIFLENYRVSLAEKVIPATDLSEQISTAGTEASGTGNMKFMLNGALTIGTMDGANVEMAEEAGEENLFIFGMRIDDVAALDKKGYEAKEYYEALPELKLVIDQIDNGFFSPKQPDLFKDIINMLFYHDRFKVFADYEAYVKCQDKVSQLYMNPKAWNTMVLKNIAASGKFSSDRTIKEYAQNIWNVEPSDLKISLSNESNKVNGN

[3] = target: Membrane-associated progesterone receptor component 1 (Homo sapiens, UniProt O00264)
Obg-like ATPase 1 = Obg-like ATPase 1 (Homo sapiens, UniProt Q9NTK5)
[4] = target: T3, STE20-related kinase adapter protein alpha (Homo sapiens, UniProt Q7RTN6)
T3 sequence (Q7RTN6 whole entry): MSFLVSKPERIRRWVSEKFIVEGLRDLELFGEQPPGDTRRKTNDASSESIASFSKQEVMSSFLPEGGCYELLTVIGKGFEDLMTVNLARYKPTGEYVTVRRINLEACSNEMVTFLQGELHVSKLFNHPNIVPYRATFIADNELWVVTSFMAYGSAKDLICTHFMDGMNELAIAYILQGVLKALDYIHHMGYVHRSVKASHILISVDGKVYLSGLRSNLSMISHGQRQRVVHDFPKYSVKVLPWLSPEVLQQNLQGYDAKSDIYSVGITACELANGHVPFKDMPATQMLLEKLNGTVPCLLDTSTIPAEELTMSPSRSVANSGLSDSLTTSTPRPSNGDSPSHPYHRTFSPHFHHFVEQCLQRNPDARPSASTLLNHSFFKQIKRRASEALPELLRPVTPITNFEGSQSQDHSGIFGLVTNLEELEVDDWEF

[5] = target: Serine/threonine-protein kinase B-raf (Homo sapiens, UniProt P15056)
[6] = target: Protein kinase C theta type (Homo sapiens, UniProt Q04759)
Further: in the data inactive means no Kd found up to 30 µM.

Chain of Serine/threonine-protein kinase B-raf (P15056 whole entry): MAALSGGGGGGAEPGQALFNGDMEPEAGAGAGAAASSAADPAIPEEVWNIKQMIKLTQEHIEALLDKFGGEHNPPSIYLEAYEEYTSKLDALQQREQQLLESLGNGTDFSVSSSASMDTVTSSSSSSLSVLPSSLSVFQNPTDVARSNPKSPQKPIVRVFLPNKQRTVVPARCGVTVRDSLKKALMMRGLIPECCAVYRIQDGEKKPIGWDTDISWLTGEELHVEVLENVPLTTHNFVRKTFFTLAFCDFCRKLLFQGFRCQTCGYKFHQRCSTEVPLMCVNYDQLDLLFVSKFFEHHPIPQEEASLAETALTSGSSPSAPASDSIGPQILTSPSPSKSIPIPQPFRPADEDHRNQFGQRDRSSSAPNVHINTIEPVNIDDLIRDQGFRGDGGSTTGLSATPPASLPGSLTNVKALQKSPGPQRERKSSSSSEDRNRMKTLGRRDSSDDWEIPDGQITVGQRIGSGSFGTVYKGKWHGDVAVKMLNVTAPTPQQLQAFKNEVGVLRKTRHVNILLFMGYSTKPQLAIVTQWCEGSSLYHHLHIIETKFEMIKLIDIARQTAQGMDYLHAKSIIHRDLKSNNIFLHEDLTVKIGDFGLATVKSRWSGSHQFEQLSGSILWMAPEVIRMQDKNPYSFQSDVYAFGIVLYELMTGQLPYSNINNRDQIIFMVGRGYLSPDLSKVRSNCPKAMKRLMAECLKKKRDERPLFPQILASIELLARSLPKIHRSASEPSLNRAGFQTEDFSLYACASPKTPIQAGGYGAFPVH
Chain of Obg-like ATPase 1 (Q9NTK5 whole entry, looked up): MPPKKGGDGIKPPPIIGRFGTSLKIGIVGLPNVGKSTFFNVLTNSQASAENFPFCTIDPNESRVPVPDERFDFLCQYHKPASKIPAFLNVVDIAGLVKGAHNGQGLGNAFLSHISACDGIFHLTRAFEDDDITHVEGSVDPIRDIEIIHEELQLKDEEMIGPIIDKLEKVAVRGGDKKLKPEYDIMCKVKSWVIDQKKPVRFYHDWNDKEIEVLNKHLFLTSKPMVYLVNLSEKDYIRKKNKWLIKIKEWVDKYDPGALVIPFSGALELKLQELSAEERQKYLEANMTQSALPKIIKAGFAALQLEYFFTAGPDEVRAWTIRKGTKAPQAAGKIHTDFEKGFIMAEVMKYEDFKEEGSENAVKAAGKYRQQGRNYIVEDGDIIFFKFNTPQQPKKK
Chain of Membrane-associated progesterone receptor component 1 (O00264 whole entry): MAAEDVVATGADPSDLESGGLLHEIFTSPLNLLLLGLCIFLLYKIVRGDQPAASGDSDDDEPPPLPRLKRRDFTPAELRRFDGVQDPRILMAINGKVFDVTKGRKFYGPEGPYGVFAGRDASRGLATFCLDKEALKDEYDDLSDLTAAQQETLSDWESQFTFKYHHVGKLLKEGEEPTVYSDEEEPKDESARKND
Chain of Protein kinase C theta type (Q04759 whole entry): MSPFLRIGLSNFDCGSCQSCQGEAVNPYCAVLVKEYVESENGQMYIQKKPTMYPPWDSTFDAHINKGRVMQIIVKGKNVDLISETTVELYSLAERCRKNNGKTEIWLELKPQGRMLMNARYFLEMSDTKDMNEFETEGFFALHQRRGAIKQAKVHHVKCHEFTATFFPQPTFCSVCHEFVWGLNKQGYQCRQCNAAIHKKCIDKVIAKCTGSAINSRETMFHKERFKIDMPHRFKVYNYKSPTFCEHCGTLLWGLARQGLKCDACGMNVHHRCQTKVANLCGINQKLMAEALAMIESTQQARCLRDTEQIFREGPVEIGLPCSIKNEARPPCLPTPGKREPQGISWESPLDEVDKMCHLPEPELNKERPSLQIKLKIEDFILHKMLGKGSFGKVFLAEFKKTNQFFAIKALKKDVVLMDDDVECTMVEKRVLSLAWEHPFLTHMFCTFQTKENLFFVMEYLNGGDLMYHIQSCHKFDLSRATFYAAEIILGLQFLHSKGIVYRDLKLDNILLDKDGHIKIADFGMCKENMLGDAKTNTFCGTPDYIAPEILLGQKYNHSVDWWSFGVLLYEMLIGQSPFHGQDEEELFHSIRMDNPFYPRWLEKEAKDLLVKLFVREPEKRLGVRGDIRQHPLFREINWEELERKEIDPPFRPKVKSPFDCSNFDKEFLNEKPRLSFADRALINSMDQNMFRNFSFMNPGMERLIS

| Kd [1] | Kd [2] | Kd [3] | Kd (Obg-like ATPase 1) | Kd [4] | Kd [5] | Kd [6] | SMILES |
| --- | --- | --- | --- | --- | --- | --- | --- |
| > 30 µM (inactive) | > 30 µM (inactive) | > 30 µM (inactive) | > 30 µM (inactive) | > 30 µM (inactive) | 2.48 µM (active) | > 30 µM (inactive) | Cc1csc(-c2nnc(Nc3ccc(Oc4ncccc4-c4ccnc(N)n4)cc3)c3ccccc23)c1 [AMG-900] |
| > 30 µM (inactive) | > 30 µM (inactive) | > 30 µM (inactive) | > 30 µM (inactive) | > 30 µM (inactive) | > 30 µM (inactive) | > 30 µM (inactive) | Cc1cc(C(=O)NOCCO)c(Nc2ccc(I)cc2F)n(C)c1=O [AZD-8330] |
| > 30 µM (inactive) | > 30 µM (inactive) | > 30 µM (inactive) | > 30 µM (inactive) | > 30 µM (inactive) | > 30 µM (inactive) | > 30 µM (inactive) | CCn1c(C(=O)N(C2CC2)C2CC2)cc2c3c(ncn3C)c(Nc3cc(C)n(C)n3)nc21 [BMS-911543] |
| > 30 µM (inactive) | > 30 µM (inactive) | > 30 µM (inactive) | > 30 µM (inactive) | > 30 µM (inactive) | 2.85 µM (active) | > 30 µM (inactive) | COc1cc2ncnc(Oc3cccc(NC(=O)Nc4cc(C(C)(C)C(F)(F)F)on4)c3)c2cc1OC [CEP-32496] |
| > 30 µM (inactive) | > 30 µM (inactive) | > 30 µM (inactive) | > 30 µM (inactive) | > 30 µM (inactive) | > 30 µM (inactive) | > 30 µM (inactive) | C#Cc1cccc(Nc2ncnc3cc(OC)c(OCCCCCCC(=O)NO)cc23)c1 [CUDC-101] |

Further lines, the molecule ahead of its results:

| SMILES | Kd [1] | Kd [2] | Kd [3] | Kd (Obg-like ATPase 1) | Kd [4] | Kd [5] | Kd [6] |
| --- | --- | --- | --- | --- | --- | --- | --- |
| Cc1nc2cc(-c3nn(C(C)C)c4ncnc(N)c34)ccc2o1 | > 30 µM (inactive) | > 30 µM (inactive) | > 30 µM (inactive) | > 30 µM (inactive) | > 30 µM (inactive) | > 30 µM (inactive) | > 30 µM (inactive) |
| Cc1nc(NC(=O)N2CCC[C@H]2C(N)=O)sc1-c1ccnc(C(C)(C)C(F)(F)F)c1 [ALPELISIB] | > 30 µM (inactive) | > 30 µM (inactive) | > 30 µM (inactive) | > 30 µM (inactive) | > 30 µM (inactive) | > 30 µM (inactive) | > 30 µM (inactive) |
| O=C(Nc1c[nH]nc1-c1nc2cc(CN3CCOCC3)ccc2[nH]1)NC1CC1 [AT-9283] | > 30 µM (inactive) | > 30 µM (inactive) | > 30 µM (inactive) | > 30 µM (inactive) | > 30 µM (inactive) | > 30 µM (inactive) | > 30 µM (inactive) |
| C=CC(=O)Nc1cc2c(Nc3ccc(F)c(Cl)c3)ncnc2cc1C#CC(C)(C)N1CCN(C)CC1 [AV-412 FREE BASE] | > 30 µM (inactive) | > 30 µM (inactive) | > 30 µM (inactive) | > 30 µM (inactive) | > 30 µM (inactive) | > 30 µM (inactive) | > 30 µM (inactive) |
| COc1cc([C@@H]2c3cc4c(cc3[C@H](O)[C@H]3COC(=O)[C@@H]23)OCO4)cc(OC)c1OC [AXL-1717] | > 30 µM (inactive) | > 30 µM (inactive) | > 30 µM (inactive) | > 30 µM (inactive) | > 30 µM (inactive) | > 30 µM (inactive) | > 30 µM (inactive) |
| NC(=O)Nc1cc(-c2cccc(F)c2)sc1C(=O)N[C@H]1CCCNC1 [AZD-7762] | > 30 µM (inactive) | > 30 µM (inactive) | > 30 µM (inactive) | > 30 µM (inactive) | > 30 µM (inactive) | > 30 µM (inactive) | > 30 µM (inactive) |
| Cn1cnc2c(F)c(Nc3ccc(Br)cc3F)c(C(=O)NOCCO)cc21 [BINIMETINIB] | > 30 µM (inactive) | > 30 µM (inactive) | > 30 µM (inactive) | > 30 µM (inactive) | > 30 µM (inactive) | > 30 µM (inactive) | > 30 µM (inactive) |
| O=C(Nc1nc2cccc(-c3ccc(CN4CCS(=O)(=O)CC4)cc3)n2n1)C1CC1 [FILGOTINIB] | > 30 µM (inactive) | > 30 µM (inactive) | > 30 µM (inactive) | > 30 µM (inactive) | > 30 µM (inactive) | > 30 µM (inactive) | > 30 µM (inactive) |
| Cc1cccc(-c2nn3c(c2-c2ccnc4ccc(C(N)=O)cc24)CCC3)n1 [GALUNISERTIB] | > 30 µM (inactive) | > 30 µM (inactive) | > 30 µM (inactive) | > 30 µM (inactive) | > 30 µM (inactive) | > 30 µM (inactive) | > 30 µM (inactive) |
| CN(C[C@@H]1COCCO1)S(=O)(=O)Nc1ccc2ccc3ncc(-c4cnn(C)c4)cc3c(=O)c2c1 [MK-2461] | > 30 µM (inactive) | > 30 µM (inactive) | > 30 µM (inactive) | > 30 µM (inactive) | > 30 µM (inactive) | > 30 µM (inactive) | > 30 µM (inactive) |
| Cn1cc(-c2cnc3ccc4ccc(CS(=O)(=O)NCc5ccccn5)cc4c(=O)c3c2)cn1 [MK-8033] | > 30 µM (inactive) | > 30 µM (inactive) | > 30 µM (inactive) | > 30 µM (inactive) | > 30 µM (inactive) | > 30 µM (inactive) | > 30 µM (inactive) |
| CCOc1cc2ncc(C#N)c(Nc3ccc(F)c(Cl)c3)c2cc1NC(=O)/C=C/CN(C)C [PELITINIB] | > 30 µM (inactive) | > 30 µM (inactive) | > 30 µM (inactive) | > 30 µM (inactive) | > 30 µM (inactive) | > 30 µM (inactive) | > 30 µM (inactive) |
| CCCCCCCCCCCCCCCCCCOP(=O)([O-])OC1CC[N+](C)(C)CC1 [PERIFOSINE] | > 30 µM (inactive) | > 30 µM (inactive) | > 30 µM (inactive) | > 30 µM (inactive) | > 30 µM (inactive) | > 30 µM (inactive) | > 30 µM (inactive) |
| Cc1nc(Nc2n[nH]c3c2CN(C(=O)N[C@H](CN(C)C)c2ccccc2)C3(C)C)c2sccc2n1 [PF-03758309] | > 30 µM (inactive) | > 30 µM (inactive) | > 30 µM (inactive) | > 30 µM (inactive) | > 30 µM (inactive) | > 30 µM (inactive) | 0.085 µM (active) |
| O=c1[nH]ccc2cc(OC3CCNCC3)ccc12 [SAR-407899 FREE BASE] | > 30 µM (inactive) | > 30 µM (inactive) | > 30 µM (inactive) | > 30 µM (inactive) | > 30 µM (inactive) | > 30 µM (inactive) | > 30 µM (inactive) |
